Species on record: Rattus norvegicus
Assay: DrugMatrix - Regimen: Daily Repeat
Format: toxicity, organism-based, Sprague-Dawley
Set-up: regimen Daily Repeat, gender Male, age 6-8 weeks
Settings: in vivo, po, 0 mg/kg, route oral GAVAGE, dose level Control, vehicle .5 % CMC; for BASOPHIL / EOSINOPHIL / ERYTHROCYTE COUNT / HEMATOCRIT / HEMOGLOBIN / LEUKOCYTE COUNT / LYMPHOCYTE / MEAN CORPUSCULAR HEMOGLOBIN / MEAN CORPUSCULAR HEMOGLOBIN CONCENTRATION / MEAN CORPUSCULAR VOLUME / MONOCYTE / NEUTROPHIL / PLATELET COUNT: tissue Blood; for ALANINE AMINOTRANSFERASE / ALBUMIN / ALKALINE PHOSPHATASE / ASPARTATE AMINOTRANSFERASE / BLOOD UREA NITROGEN / CARBON DIOXIDE / CHLORIDE / CHOLESTEROL / CREATINE PHOSPHOKINASE / CREATININE / GLUCOSE / LACTATE DEHYDROGENASE / LIPASE / PHOSPHORUS / POTASSIUM / SODIUM / TOTAL BILIRUBIN / TOTAL PROTEIN / URIC ACID: tissue Plasma

## O=[N+]([O-])c1ccccc1 [NITROBENZENE]
72 h, time 3 day
  BASOPHIL: 0.62%
  EOSINOPHIL: 0.52%
  ERYTHROCYTE COUNT: 6.33 x10E6/uL
  HEMATOCRIT: 41.88%
  HEMOGLOBIN: 13.52 G/DL
  LEUKOCYTE COUNT: 11.39 x10E3/uL
  LYMPHOCYTE: 86.18%
  MEAN CORPUSCULAR HEMOGLOBIN: 21.35 pg
  MEAN CORPUSCULAR HEMOGLOBIN CONCENTRATION: 32.23 G/DL
  MEAN CORPUSCULAR VOLUME: 66.25 fL
  MONOCYTE: 1.93%
  NEUTROPHIL: 9.1%
  PLATELET COUNT: 1204.5 x10E3/uL
  ALANINE AMINOTRANSFERASE: 43 u/L
  ALBUMIN: 4.08 G/DL
  ALKALINE PHOSPHATASE: 426.33 u/L
  ASPARTATE AMINOTRANSFERASE: 72.5 u/L
  BLOOD UREA NITROGEN: 16.67 mg/dL
  CARBON DIOXIDE: 28.33 mmol/L
  CHLORIDE: 103.5 MEQ/L
  CHOLESTEROL: 78.83 mg/dL
  CREATINE PHOSPHOKINASE: 325.67 u/L
  CREATININE: 0.48 mg/dL
  GLUCOSE: 171.67 mg/dL
  LACTATE DEHYDROGENASE: 107.33 u/L
  LIPASE: 11.83 u/L
  PHOSPHORUS: 12.55 mg/dL
  POTASSIUM: 6.57 MEQ/L
  SODIUM: 145.67 MEQ/L
  TOTAL BILIRUBIN: 0.42 mg/dL
  TOTAL PROTEIN: 6.1 G/DL
  URIC ACID: 1.57 mg/dL
120 h, time 5 day
  BASOPHIL: 0.48%
  EOSINOPHIL: 0.67%
  ERYTHROCYTE COUNT: 6.69 x10E6/uL
  HEMATOCRIT: 44.17%
  HEMOGLOBIN: 13.78 G/DL
  LEUKOCYTE COUNT: 7.86 x10E3/uL
  LYMPHOCYTE: 85.9%
  MEAN CORPUSCULAR HEMOGLOBIN: 20.6 pg
  MEAN CORPUSCULAR HEMOGLOBIN CONCENTRATION: 31.25 G/DL
  MEAN CORPUSCULAR VOLUME: 65.9 fL
  MONOCYTE: 3.27%
  NEUTROPHIL: 8.67%
  PLATELET COUNT: 1182.33 x10E3/uL
  ALANINE AMINOTRANSFERASE: 37.5 u/L
  ALBUMIN: 4 G/DL
  ALKALINE PHOSPHATASE: 348.17 u/L
  ASPARTATE AMINOTRANSFERASE: 71.67 u/L
  BLOOD UREA NITROGEN: 13 mg/dL
  CARBON DIOXIDE: 27 mmol/L
  CHLORIDE: 104.67 MEQ/L
  CHOLESTEROL: 73.33 mg/dL
  CREATINE PHOSPHOKINASE: 211.33 u/L
  CREATININE: 0.23 mg/dL
  GLUCOSE: 155 mg/dL
  LACTATE DEHYDROGENASE: 133.83 u/L
  LIPASE: 11.17 u/L
  PHOSPHORUS: 14.53 mg/dL
  POTASSIUM: 6.65 MEQ/L
  SODIUM: 148.17 MEQ/L
  TOTAL BILIRUBIN: 0.28 mg/dL
  TOTAL PROTEIN: 6.22 G/DL
  URIC ACID: 1.57 mg/dL
[…], time 14 day
  BASOPHIL: 0.97%
  EOSINOPHIL: 0.8%
  ERYTHROCYTE COUNT: 7.02 x10E6/uL
  HEMATOCRIT: 44.43%
  HEMOGLOBIN: 14.58 G/DL
  LEUKOCYTE COUNT: 16.49 x10E3/uL
  LYMPHOCYTE: 79.03%
  MEAN CORPUSCULAR HEMOGLOBIN: 20.85 pg
  MEAN CORPUSCULAR HEMOGLOBIN CONCENTRATION: 32.78 G/DL
  MEAN CORPUSCULAR VOLUME: 63.57 fL
  MONOCYTE: 1.9%
  NEUTROPHIL: 15.18%
  PLATELET COUNT: 1184.33 x10E3/uL
  ALANINE AMINOTRANSFERASE: 43 u/L
  ALBUMIN: 4.25 G/DL
  ALKALINE PHOSPHATASE: 409.67 u/L
  ASPARTATE AMINOTRANSFERASE: 84.17 u/L
  BLOOD UREA NITROGEN: 16 mg/dL
  CARBON DIOXIDE: 35.17 mmol/L
  CHLORIDE: 99.83 MEQ/L
  CHOLESTEROL: 68.67 mg/dL
  CREATINE PHOSPHOKINASE: 384.17 u/L
  CREATININE: 0.43 mg/dL
  GLUCOSE: 160 mg/dL
  LACTATE DEHYDROGENASE: 115.33 u/L
  LIPASE: 17.33 u/L
  PHOSPHORUS: 10.68 mg/dL
  POTASSIUM: 6.48 MEQ/L
  SODIUM: 148.17 MEQ/L
  TOTAL BILIRUBIN: 0.45 mg/dL
  TOTAL PROTEIN: 6.57 G/DL
  URIC ACID: 1.78 mg/dL

Source: ChEMBL document CHEMBL3885881, “DrugMatrix”
